Source: patent publication US11285219B2, “Peptide-oligourea hybrid compounds” (UREKA SARL, priority 2019, dated 2022)
“Also recorded” adds a separate entry of the source. Numbered stars: 1 amine (or outer) side, 2 acyl side, 3 side chain; on linkers, the order of the positions; unused ones are H or OH. Bridge positions count the residues as written; N and C are the ends. Peptide text beside a SMILES is read from it. I, II: the chains in the order shown. X4 = C[C@@H](CNC(=O)[*:1])NC(=O)NC[C@H](CCC(=O)O)NC(=O)NC[C@H](Cc1ccc(O)cc1)N[*:2]; X3 = C[C@@H](CNC(=O)[*:1])NC(=O)NC[C@H](Cc1ccc(O)cc1)NC(=O)NC[C@H](C)N[*:2]; X5 = C[C@@H](CNC(=O)N[C@@H](C)CNC(=O)[*:2])NC(=O)NC[C@H](CCC(=O)O)N[*:1]

Tests used:
normal mice (C57BL/6J) = test: Blood glucose experiment in healthy mice; format: in vivo, mouse; parameters: key to In vivo activity (indicator): + = active; +++: + + + = more active; settings: for effect on blood glucose concentration: fed normal mice, 5 μg/mouse i.v., monitored 6 h; for In vivo activity (indicator): blood glucose, mice, i.v.
Experimental: In the first study, we evaluated the effect of the analogues on the blood glucose concentration of normal mice (FIG. 4). The fed mice were treated with the analogues and their blood glucose concentration was monitored before and after dosing for 6 h. […] Indeed, a decrease of blood glucose concentration is observed after 30 min and the effect is preserved for 4 h after dosing.
Blood glucose experiment in healthy mice. After the acclimation period (at least 5 days), mice (male C57BL/6J mice (Charles River laboratories) (8 weeks old, 20-25 g)) were randomized into 10 groups (n=3/group) according to their body weight. They were acutely treated via i.v. route at 10 AM (5 μg/mouse). Blood glucose was measured before dosing and at 30 min, 1, 2, 4, 6 h after dosing in fed conditions.

NEP 24.11 = NEP 24.11 (Homo sapiens, UniProt P08473); test: in vitro; settings: pH 8
Experimental: Enzymatic and mouse plasma degradation studies.
Enzymatic degradation (NEP 24.11). Stock solutions of the oligomers were prepared at a concentration of 400 μM in a solution of 50 mM HEPES buffer, 50 mM NaCl, 0.05% Tween-80, pH 8.0. Stock solution of NEP 24.11 was prepared at a concentration of 100 μg/mL in water. Stability of oligomers to NEP 24.11 was assessed by conducting protease reaction in a 96-well plates at 20° C. […] Each compound was also incubated in the absence of the enzyme (12 μL of HEPES buffer and 38 μL of oligomer). At the indicated time (1, 2, 4, 6 and 22 hours) an aliquot of 10 μL was removed from each experimental reaction and pipetting into 100 μL of 1% TFA solution to quench the reaction, (t=0 min was determined using the reaction without enzyme). A portion of the quenched reaction solution was analyzed by HPLC. The time course of peptide degradation was determined by integrating the area of each peak in a series of HPLC traces.

[1] = molecular target: T1, mouse GLP-1 receptor endogenously expressed in βTC6 cells (Mus musculus, UniProt O35659); test: cAMP production functional assay (HTRF), agonist activity at GLP-1R; format: cell-based; settings: for Potency (%), percentage of potency (cAMP production) compared to GLP-1-G^2: Table 2; for Potency (%), percentage of potency compare to GLP-1-G^2: cAMP production, Table 1; for EC50: receptor-mediated cAMP production, βTC6 cells, read-out: EC50 (nM), GLP-1R potency
T1 construct: host or cells: βTC6 cells
T1 sequence (O35659 22-463): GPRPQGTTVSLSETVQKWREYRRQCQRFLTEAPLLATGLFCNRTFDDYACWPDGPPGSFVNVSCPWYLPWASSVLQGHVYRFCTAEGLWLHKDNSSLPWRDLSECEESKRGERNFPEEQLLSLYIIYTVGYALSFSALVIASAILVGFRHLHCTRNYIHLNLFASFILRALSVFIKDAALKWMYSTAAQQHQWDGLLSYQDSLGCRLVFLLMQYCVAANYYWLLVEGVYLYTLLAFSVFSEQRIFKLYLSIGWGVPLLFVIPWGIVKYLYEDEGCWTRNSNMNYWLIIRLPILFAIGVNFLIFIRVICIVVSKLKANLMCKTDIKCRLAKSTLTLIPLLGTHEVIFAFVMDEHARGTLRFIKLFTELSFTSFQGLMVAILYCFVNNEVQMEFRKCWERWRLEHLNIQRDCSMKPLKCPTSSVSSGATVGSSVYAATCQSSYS
Experimental: The agonistic activity of these hybrids were obtained by functional assays using cells expressing the […] and by measuring the receptor-mediated cAMP produced (see supporting information).
In vitro pharmacology (EC50). […] Following incubation, the cells were lysed and the fluorescence acceptor (D2-labeled cAMP) and fluorescence donor (anti-cAMP antibody labeled with europium cryptate) were added.

Chain of NEP 24.11 (P08473 whole entry): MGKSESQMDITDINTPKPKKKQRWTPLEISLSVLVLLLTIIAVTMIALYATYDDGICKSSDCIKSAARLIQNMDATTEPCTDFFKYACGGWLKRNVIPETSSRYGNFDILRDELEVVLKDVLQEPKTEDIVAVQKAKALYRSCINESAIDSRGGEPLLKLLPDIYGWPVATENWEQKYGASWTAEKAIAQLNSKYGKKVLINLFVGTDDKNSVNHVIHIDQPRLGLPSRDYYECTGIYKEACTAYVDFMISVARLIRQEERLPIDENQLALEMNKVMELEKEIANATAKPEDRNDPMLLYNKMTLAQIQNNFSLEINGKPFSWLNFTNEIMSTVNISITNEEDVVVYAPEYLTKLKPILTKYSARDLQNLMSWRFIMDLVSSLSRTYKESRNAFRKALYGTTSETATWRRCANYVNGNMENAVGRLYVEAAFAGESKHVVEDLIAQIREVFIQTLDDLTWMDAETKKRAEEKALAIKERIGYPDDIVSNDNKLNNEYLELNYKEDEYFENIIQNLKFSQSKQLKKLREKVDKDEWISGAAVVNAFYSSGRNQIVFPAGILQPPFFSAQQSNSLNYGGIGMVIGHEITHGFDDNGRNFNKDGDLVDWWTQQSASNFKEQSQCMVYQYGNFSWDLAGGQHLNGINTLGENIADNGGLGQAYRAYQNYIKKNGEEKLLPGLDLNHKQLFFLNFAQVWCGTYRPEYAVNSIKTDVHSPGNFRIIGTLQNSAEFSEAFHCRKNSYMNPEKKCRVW

| Compound | effect on blood glucose concentration (normal mice (C57BL/6J)) | half-life at […] (NEP 24.11) [h] | loss of affinity with GLP-1R compared to the native peptide [1] | Potency (%), percentage of potency (cAMP production) compared to GLP-1-G^2 [1] [%] | Potency (%), percentage of potency compare to GLP-1-G^2 [1] [%] | EC50 [1] [nM] | In vivo activity (indicator) (normal mice (C57BL/6J)) |
| --- | --- | --- | --- | --- | --- | --- | --- |
| CC[C@H](C)[C@@H](CNC(=O)N[C@@H](C)CNC(=O)N[C@@H](CC(C)C)C(=O)N[C@H](C(=O)N[C@@H](CCCCN)C(=O)NCC(=O)N[C@@H](CCCNC(=N)N)C(=O)NCC(N)=O)C(C)C)NC(=O)N[C@@H](CNC(=O)[C@H](CCC(=O)O)NC(=O)[C@H](CCCCN)NC(=O)[C@H](C)NC(=O)[C@H](C)NC(=O)[C@H](CCC(N)=O)NC(=O)CNC(=O)[C@H](CCC(=O)O)NC(=O)[C@H](CC(C)C)NC(=O)[C@H](Cc1ccc(O)cc1)NC(=O)[C@H](CO)NC(=O)[C@H](CO)NC(=O)[C@@H](NC(=O)[C@H](CC(=O)O)NC(=O)[C@H](CO)NC(=O)[C@@H](NC(=O)[C@H](Cc1ccccc1)NC(=O)[C@@H](NC(=O)CNC(=O)[C@H](CCC(=O)O)NC(=O)CNC(=O)[C@@H](N)Cc1c[nH]cn1)[C@@H](C)O)[C@@H](C)O)C(C)C)Cc1ccccc1 [Compound 16, GG2[F^UαI^UA^U]^22-25] | no activity; also recorded: no effect | 1.8 | over a hundred fold loss | 0.4 | 0.4 | 62 |  |
| CC[C@H](C)[C@H](NC(=O)[C@H](Cc1ccccc1)NC(=O)[C@H](CCC(=O)O)NC(=O)[C@H](CCCCN)NC(=O)[C@H](C)NC(=O)[C@H](C)NC(=O)[C@H](CCC(N)=O)NC(=O)CNC(=O)[C@H](CCC(=O)O)NC(=O)NC[C@H](C)NC(=O)NC[C@H](Cc1ccc(O)cc1)NC(=O)NC[C@H](C)NC(=O)[C@@H](NC(=O)[C@H](CC(=O)O)NC(=O)[C@H](CO)NC(=O)[C@@H](NC(=O)[C@H](Cc1ccccc1)NC(=O)[C@@H](NC(=O)CNC(=O)[C@H](CCC(=O)O)NC(=O)CNC(=O)[C@@H](N)Cc1c[nH]cn1)[C@@H](C)O)[C@@H](C)O)C(C)C)C(=O)N[C@@H](C)C(=O)N[C@@H](Cc1c[nH]c2ccccc12)C(=O)N[C@@H](CC(C)C)C(=O)N[C@H](C(=O)N[C@@H](CCCCN)C(=O)NCC(=O)N[C@@H](CCCNC(=N)N)C(=O)NCC(N)=O)C(C)C [Compound 5, GG2[A^UY^UA^U]^11-14] (I: EGQAAKEFIAWLVKGRG-NH2 / II: H-HGEGTFTSDV; linker I:N-II:C via X3) | efficacy but no improvement | 2.9 |  | 15 | 15 |  | + |
| CC[C@H](C)[C@H](NC(=O)[C@H](Cc1ccccc1)NC(=O)[C@H](CCC(=O)O)NC(=O)[C@H](CCCCN)NC(=O)[C@H](C)NC(=O)[C@H](C)NC(=O)[C@H](CCC(N)=O)NC(=O)CNC(=O)[C@H](CCC(=O)O)NC(=O)[C@H](CC(C)C)NC(=O)[C@H](Cc1ccc(O)cc1)NC(=O)NC[C@H](C)NC(=O)NC[C@H](C)NC(=O)N[C@@H](CNC(=O)[C@H](CO)NC(=O)[C@@H](NC(=O)[C@H](Cc1ccccc1)NC(=O)[C@@H](NC(=O)CNC(=O)[C@H](CCC(=O)O)NC(=O)CNC(=O)[C@@H](N)Cc1c[nH]cn1)[C@@H](C)O)[C@@H](C)O)CC(=O)O)C(=O)N[C@@H](C)C(=O)N[C@@H](Cc1c[nH]c2ccccc12)C(=O)N[C@@H](CC(C)C)C(=O)N[C@H](C(=O)N[C@@H](CCCCN)C(=O)NCC(=O)N[C@@H](CCCNC(=N)N)C(=O)NCC(N)=O)C(C)C [Compound 2, GG2[D^UαA^UA^U]^9-12] | no activity; also recorded: no effect | 3.6 | over a hundred fold loss | 2 | 2 | 13 |  |
| CC[C@H](C)[C@H](NC(=O)[C@H](Cc1ccccc1)NC(=O)[C@H](CCC(=O)O)NC(=O)[C@H](CCCCN)NC(=O)[C@H](C)NC(=O)NC[C@H](C)NC(=O)NC[C@H](C)NC(=O)NC[C@H](CCC(=O)O)NC(=O)[C@H](CC(C)C)NC(=O)[C@H](Cc1ccc(O)cc1)NC(=O)[C@H](CO)NC(=O)[C@H](CO)NC(=O)[C@@H](NC(=O)[C@H](CC(=O)O)NC(=O)[C@H](CO)NC(=O)[C@@H](NC(=O)[C@H](Cc1ccccc1)NC(=O)[C@@H](NC(=O)CNC(=O)[C@H](CCC(=O)O)NC(=O)CNC(=O)[C@@H](N)Cc1c[nH]cn1)[C@@H](C)O)[C@@H](C)O)C(C)C)C(=O)N[C@@H](C)C(=O)N[C@@H](Cc1c[nH]c2ccccc12)C(=O)N[C@@H](CC(C)C)C(=O)N[C@H](C(=O)N[C@@H](CCCCN)C(=O)NCC(=O)N[C@@H](CCCNC(=N)N)C(=O)NCC(N)=O)C(C)C [Compound 11, GG2[E^UA^UA^U]^15-18] (I: H-HGEGTFTSDVSSYL / II: AKEFIAWLVKGRG-NH2; linker I:C-II:N via X5) | no activity; also recorded: no effect | 3.9 |  | 13 | 13 |  |  |
| CC[C@H](C)[C@H](NC(=O)[C@H](Cc1ccccc1)NC(=O)[C@H](CCC(=O)O)NC(=O)[C@H](CCCCN)NC(=O)[C@H](C)NC(=O)[C@H](C)NC(=O)[C@H](CCC(N)=O)NC(=O)CNC(=O)[C@H](CCC(=O)O)NC(=O)[C@H](CC(C)C)NC(=O)NC[C@H](C)NC(=O)NC[C@H](C)NC(=O)NC[C@H](C)NC(=O)[C@H](CC(=O)O)NC(=O)[C@H](CO)NC(=O)[C@@H](NC(=O)[C@H](Cc1ccccc1)NC(=O)[C@@H](NC(=O)CNC(=O)[C@H](CCC(=O)O)NC(=O)CNC(=O)[C@@H](N)Cc1c[nH]cn1)[C@@H](C)O)[C@@H](C)O)C(=O)N[C@@H](C)C(=O)N[C@@H](Cc1c[nH]c2ccccc12)C(=O)N[C@@H](CC(C)C)C(=O)N[C@H](C(=O)N[C@@H](CCCCN)C(=O)NCC(=O)N[C@@H](CCCNC(=N)N)C(=O)NCC(N)=O)C(C)C [Compound 3, GG2[A^UA^UA^U]^10-13] |  |  |  |  | 0.04 |  |  |
| CC[C@H](C)[C@H](NC(=O)[C@H](Cc1ccccc1)NC(=O)[C@H](CCC(=O)O)NC(=O)[C@H](CCCCN)NC(=O)[C@H](C)NC(=O)[C@H](C)NC(=O)NC[C@H](C)NC(=O)NC[C@H](CCC(=O)O)NC(=O)NC[C@H](Cc1ccc(O)cc1)NC(=O)[C@H](Cc1ccc(O)cc1)NC(=O)[C@H](CO)NC(=O)[C@H](CO)NC(=O)[C@@H](NC(=O)[C@H](CC(=O)O)NC(=O)[C@H](CO)NC(=O)[C@@H](NC(=O)[C@H](Cc1ccccc1)NC(=O)[C@@H](NC(=O)CNC(=O)[C@H](CCC(=O)O)NC(=O)CNC(=O)[C@@H](N)Cc1c[nH]cn1)[C@@H](C)O)[C@@H](C)O)C(C)C)C(=O)N[C@@H](C)C(=O)N[C@@H](Cc1c[nH]c2ccccc12)C(=O)N[C@@H](CC(C)C)C(=O)N[C@H](C(=O)N[C@@H](CCCCN)C(=O)NCC(=O)N[C@@H](CCCNC(=N)N)C(=O)NCC(N)=O)C(C)C [Compound 9, GG2[Y^UE^UA^U]^14-17] (I: AAKEFIAWLVKGRG-NH2 / II: H-HGEGTFTSDVSSY; linker I:N-II:C via X4) | efficacy but no improvement |  |  | 135 | 135 | 0.18 | + |
